Laboratory results as given in article PMC7876048, “Mutant-selective degradation by BRAF-targeting PROTACs” (Nature Communications, 2021).
Entries after “also recorded” stand apart in the source; their conditions may differ.

Assays:
BRAF WT = target: T1, BRAF WT (Homo sapiens, UniProt P15056); experiment: Elisa kinase inhibition assay (Carna Biosciences); type: biochemical; conditions: Km ATP, duplicate
T1 construct: purchased Carna Biosciences
Method: Kinase assays were performed by Carna Biosciences by their protocol in duplicate using Km amounts of ATP calculated for each kinase.

BRAF^WT (OVCAR-8 cells) = target: T2, BRAF^WT (OVCAR-8 cells) (Homo sapiens, UniProt P15056); experiment: BRAF^WT degradation by immunoblot in OVCAR-8 cells; type: cell-based
T2 construct: endogenous in cells; host or cells: OVCAR-8
Method: (§1) Cells were plated in 6 well dishes (5 × 10^5–8 × 10^5 cells) and allowed to attach overnight. […] The plates were then placed on ice and washed 1x with chilled PBS and lysed in buffer containing 25 mM Tris-HCl [pH 7.4], 0.25% sodium deoxycholate, 150 mM NaCl, 1% Triton X-100, supplemented with protease inhibitors (1x Roche protease inhibitor cocktail) and phosphatase inhibitors (10 mM NaF, 1 mM Na3OV4, and 20 mM β-glycerophosphate). Lysates were then cleared at 21,000 g for 10 min at 4 °C. Protein concentrations of the supernatants were then quantified using a Pierce BCA Protein Assay. 12–40 µg of protein were separated using a gradient (4–20%) Criterion TGX precast gel and transferred unto a nitrocellulose membrane. The membranes were then blocked in 5% non-fat milk in TBST (Tris-buffered Saline with Tween 20) for 1 h before probing with the indicated primary antibody overnight. Membranes were imaged using Bio-Rad Image Lab software using ECL prime detection reagent (GE Healthcare, RPN2232 or ThermoScientific, 34095).
(§2) Western blot data was quantified by using the band feature in Image Lab, and values were averaged and analyzed in GraphPad Prism. DC50 and DMAX values were fitted using a three parameter [inhibitor] versus response and reported directly from the Prism output. Mean ± SD and unpaired t-tests were performed in GraphPad Prism.

[1] = test system: SK-MEL-246 cells (Class 2, BRAF^G469A); experiment: Cell proliferation (MTS) assay; type: cell-based; conditions: 120 h, 5-day treatment, read-out: EC50, cell growth
BRAF V600E = BRAF V600E (Homo sapiens, UniProt P15056, V600E); experiment: Radiolabeled kinase assay (Reaction Biology); type: biochemical; set-up: purchased Reaction Biology Corps
Method: (§3) Kinase assays were performed by Reaction Biology Corps by their protocol in duplicate using Km amounts of ATP calculated for each kinase.

[2] = target: T3, BRAF^V600E (SK-MEL-28 cells, homozygous) (Homo sapiens, UniProt P15056, V600E); experiment: BRAF degradation by immunoblot in SK-MEL-28 cells; type: cell-based
T3 construct: endogenous in cells; host or cells: SK-MEL-28
Method: as §1, §2

[3] = target: T4, BRAF^WT (NCI-H23 cells, K-RAS^G12C) (Homo sapiens, UniProt P15056); experiment: BRAF^WT degradation by immunoblot in NCI-H23 cells; type: cell-based
T4 construct: endogenous in cells; host or cells: NCI-H23
Method: as §1, §2

[4] = test system: MEK and ERK phosphorylation (SK-MEL-28 cells); experiment: MEK and ERK phosphorylation by immunoblot in SK-MEL-28 cells; type: cell-based
Method: as §1, §2

[5] = test system: H1666 cells (Class 3, BRAF^G466V); experiment: Cell proliferation (MTS) assay; type: cell-based; conditions: 5 days
[6] = test system: SK-MEL-28 cells (Class 1, BRAF^V600E); experiment: Cell proliferation (MTS) assay; type: cell-based
BRAF (V600A) = target: T5, BRAF (V600A) (Homo sapiens, UniProt P15056, V600A); experiment: Radiolabeled kinase assay (Reaction Biology); type: biochemical
T5 construct: purchased Reaction Biology Corps
Method: as §3

BRAF (G469A) = target: T6, BRAF (G469A) (Homo sapiens, UniProt P15056, G469A); experiment: Radiolabeled kinase assay (Reaction Biology); type: biochemical
T6 construct: purchased Reaction Biology Corps
Method: as §3

BRAF (G464V) = target: T7, BRAF (G464V) (Homo sapiens, UniProt P15056, G464V); experiment: Radiolabeled kinase assay (Reaction Biology); type: biochemical
T7 construct: purchased Reaction Biology Corps
Method: as §3

BRAF (V600D) = target: T8, BRAF (V600D) (Homo sapiens, UniProt P15056, V600D); experiment: Radiolabeled kinase assay (Reaction Biology); type: biochemical
T8 construct: purchased Reaction Biology Corps
Method: as §3

BRAF (BRAF^WT) = target: T9, BRAF (BRAF^WT) (Homo sapiens, UniProt P15056); experiment: Radiolabeled kinase assay (Reaction Biology); type: biochemical
T9 construct: purchased Reaction Biology Corps
Method: as §3

ARAF = target: T10, ARAF (Homo sapiens, UniProt P10398); experiment: Radiolabeled kinase assay (Reaction Biology); type: biochemical
T10 construct: purchased Reaction Biology Corps
Method: as §3

BRAF (V600K) = target: T11, BRAF (V600K) (Homo sapiens, UniProt P15056, V600K); experiment: Radiolabeled kinase assay (Reaction Biology); type: biochemical
T11 construct: purchased Reaction Biology Corps
Method: as §3

BRAF (K601E) = target: T12, BRAF (K601E) (Homo sapiens, UniProt P15056, K601E); experiment: Radiolabeled kinase assay (Reaction Biology); type: biochemical
T12 construct: purchased Reaction Biology Corps
Method: as §3

BRAF (L597V) = target: T13, BRAF (L597V) (Homo sapiens, UniProt P15056, L597V); experiment: Radiolabeled kinase assay (Reaction Biology); type: biochemical
T13 construct: purchased Reaction Biology Corps
Method: as §3

CRAF = CRAF (Homo sapiens, UniProt P04049); experiment: Radiolabeled kinase assay (Reaction Biology); type: biochemical
Method: as §3

[7] = test system: SK-MEL-246 melanoma xenograft (Class 2, BRAF^G469A); experiment: SK-MEL-246 xenograft efficacy study; type: in vivo, mice
Method: 10 million SK-MEL-246 cells were subcutaneously implanted in female nu/nu mice. The tumor volumes and mice weights were measured twice a week after the implantation. […] All studies were performed in compliance with institutional guidelines under an Institutional Animal Care and Use Committee (IACUC) approved protocol. Investigators were not blinded when assessing the outcome of the in vivo experiments.

[8] = target: T14, BRAF^G469A (SK-MEL-246 cells, Class 2) (Homo sapiens, UniProt P15056, G469A); experiment: BRAF degradation by immunoblot in SK-MEL-246 cells; type: cell-based
T14 construct: endogenous in cells; host or cells: SK-MEL-246
Method: as §1, §2

T3 sequence (P15056 whole entry V600E): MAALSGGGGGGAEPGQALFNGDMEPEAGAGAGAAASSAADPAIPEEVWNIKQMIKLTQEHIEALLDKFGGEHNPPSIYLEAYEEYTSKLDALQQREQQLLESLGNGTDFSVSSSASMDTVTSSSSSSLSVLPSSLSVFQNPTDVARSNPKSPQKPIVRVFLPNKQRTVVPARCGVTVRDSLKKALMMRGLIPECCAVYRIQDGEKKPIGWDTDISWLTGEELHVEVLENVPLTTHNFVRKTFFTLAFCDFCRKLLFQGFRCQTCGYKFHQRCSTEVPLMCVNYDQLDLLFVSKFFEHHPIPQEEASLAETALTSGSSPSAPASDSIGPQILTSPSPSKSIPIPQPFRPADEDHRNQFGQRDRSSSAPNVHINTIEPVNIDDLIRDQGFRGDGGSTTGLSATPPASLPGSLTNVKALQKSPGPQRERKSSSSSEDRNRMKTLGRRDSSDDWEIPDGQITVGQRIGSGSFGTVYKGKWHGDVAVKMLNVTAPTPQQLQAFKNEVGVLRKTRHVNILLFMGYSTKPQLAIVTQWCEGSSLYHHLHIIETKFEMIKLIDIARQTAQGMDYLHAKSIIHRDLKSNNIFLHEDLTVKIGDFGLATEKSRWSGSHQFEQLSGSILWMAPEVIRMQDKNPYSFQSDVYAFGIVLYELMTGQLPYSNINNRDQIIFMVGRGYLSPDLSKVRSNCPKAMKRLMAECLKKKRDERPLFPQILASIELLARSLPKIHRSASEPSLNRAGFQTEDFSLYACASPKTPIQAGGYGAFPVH
T14 sequence (P15056 whole entry G469A): as the sequence (P15056 whole entry V600E) above, with G469A, E600V counted along it
T4 sequence (P15056 2-766, stated change not applied): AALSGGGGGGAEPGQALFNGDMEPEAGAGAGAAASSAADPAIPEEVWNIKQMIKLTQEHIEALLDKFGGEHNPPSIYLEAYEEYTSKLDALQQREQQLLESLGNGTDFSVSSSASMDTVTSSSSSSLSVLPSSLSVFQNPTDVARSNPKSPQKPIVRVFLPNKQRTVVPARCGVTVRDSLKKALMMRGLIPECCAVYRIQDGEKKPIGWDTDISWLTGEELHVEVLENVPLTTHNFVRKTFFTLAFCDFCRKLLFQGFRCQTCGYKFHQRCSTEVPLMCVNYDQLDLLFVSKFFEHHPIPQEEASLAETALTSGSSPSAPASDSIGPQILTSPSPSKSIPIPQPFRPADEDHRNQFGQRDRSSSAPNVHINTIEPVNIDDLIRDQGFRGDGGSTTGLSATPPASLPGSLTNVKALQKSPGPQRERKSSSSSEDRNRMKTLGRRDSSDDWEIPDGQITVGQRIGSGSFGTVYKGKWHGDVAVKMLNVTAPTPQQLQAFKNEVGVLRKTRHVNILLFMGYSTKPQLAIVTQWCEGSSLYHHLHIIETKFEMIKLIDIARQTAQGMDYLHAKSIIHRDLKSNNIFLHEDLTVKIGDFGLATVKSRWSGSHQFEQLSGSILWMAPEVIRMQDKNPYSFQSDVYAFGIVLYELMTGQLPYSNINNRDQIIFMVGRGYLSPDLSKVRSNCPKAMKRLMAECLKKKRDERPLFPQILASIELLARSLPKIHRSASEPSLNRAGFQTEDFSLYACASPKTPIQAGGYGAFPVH
T11 sequence (P15056 whole entry V600K): as the sequence (P15056 whole entry V600E) above, with E600K counted along it
CRAF, sequence (P04049 whole entry): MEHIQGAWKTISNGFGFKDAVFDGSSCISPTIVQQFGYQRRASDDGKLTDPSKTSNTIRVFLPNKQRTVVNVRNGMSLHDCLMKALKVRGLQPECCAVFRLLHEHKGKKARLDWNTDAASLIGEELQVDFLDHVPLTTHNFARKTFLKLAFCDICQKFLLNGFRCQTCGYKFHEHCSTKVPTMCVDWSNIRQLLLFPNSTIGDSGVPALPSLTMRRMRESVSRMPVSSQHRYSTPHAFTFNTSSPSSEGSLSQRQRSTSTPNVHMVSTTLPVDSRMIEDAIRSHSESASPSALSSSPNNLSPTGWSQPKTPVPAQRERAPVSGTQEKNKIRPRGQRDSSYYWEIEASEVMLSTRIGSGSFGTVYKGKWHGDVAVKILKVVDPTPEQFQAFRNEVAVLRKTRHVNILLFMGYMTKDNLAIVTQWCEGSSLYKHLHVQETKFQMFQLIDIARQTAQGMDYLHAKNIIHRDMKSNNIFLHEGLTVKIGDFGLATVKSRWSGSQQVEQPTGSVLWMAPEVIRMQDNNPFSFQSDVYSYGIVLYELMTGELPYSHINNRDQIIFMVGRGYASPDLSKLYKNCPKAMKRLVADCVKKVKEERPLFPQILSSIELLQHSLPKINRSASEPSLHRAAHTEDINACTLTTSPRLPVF
T13 sequence (P15056 whole entry L597V): as the sequence (P15056 whole entry V600E) above, with L597V, E600V counted along it
T7 sequence (P15056 whole entry G464V): as the sequence (P15056 whole entry V600E) above, with G464V, E600V counted along it
T10 sequence (P10398 whole entry): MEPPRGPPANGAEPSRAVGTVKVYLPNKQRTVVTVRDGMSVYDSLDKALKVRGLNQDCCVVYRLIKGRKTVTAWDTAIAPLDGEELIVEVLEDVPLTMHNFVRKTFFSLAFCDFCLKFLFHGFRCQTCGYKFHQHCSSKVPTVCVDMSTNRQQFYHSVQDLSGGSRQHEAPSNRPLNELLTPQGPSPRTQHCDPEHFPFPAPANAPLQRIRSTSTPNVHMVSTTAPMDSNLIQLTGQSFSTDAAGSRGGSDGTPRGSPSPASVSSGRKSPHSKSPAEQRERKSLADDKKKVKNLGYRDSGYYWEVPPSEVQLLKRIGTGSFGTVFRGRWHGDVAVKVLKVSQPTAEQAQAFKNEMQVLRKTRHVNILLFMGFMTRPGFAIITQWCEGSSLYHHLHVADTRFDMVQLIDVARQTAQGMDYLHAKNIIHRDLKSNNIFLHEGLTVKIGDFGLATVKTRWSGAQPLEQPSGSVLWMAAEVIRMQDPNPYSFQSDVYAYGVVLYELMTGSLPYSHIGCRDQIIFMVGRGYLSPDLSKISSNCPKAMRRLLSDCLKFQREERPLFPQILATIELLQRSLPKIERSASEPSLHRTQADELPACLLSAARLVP
T12 sequence (P15056 whole entry K601E): as the sequence (P15056 whole entry V600E) above, with E600V, K601E counted along it
BRAF V600E, sequence (P15056 whole entry V600E): as the sequence (P15056 whole entry V600E) above
T8 sequence (P15056 whole entry V600D): as the sequence (P15056 whole entry V600E) above, with E600D counted along it
T6 sequence (P15056 whole entry G469A): as the sequence (P15056 whole entry V600E) above, with G469A, E600V counted along it
T5 sequence (P15056 whole entry V600A): as the sequence (P15056 whole entry V600E) above, with E600A counted along it
T2 sequence (P15056 whole entry): as the sequence (P15056 whole entry V600E) above, with E600V counted along it
T9 sequence (P15056 whole entry): as the sequence (P15056 whole entry V600E) above, with E600V counted along it
T1 sequence (P15056 whole entry): as the sequence (P15056 whole entry V600E) above, with E600V counted along it

IC50 (BRAF WT): 39.2 nM
BRAF^WT degradation (BRAF^WT (OVCAR-8 cells)): minor BRAF^WT degradation
EC50 [1]: 45 ± 1.11 nM
IC50 (BRAF V600E): 1.87 nM
time for which BRAF^V600E degradation and p-ERK inhibition was sustained ([2]; 100 nM): up to 72 h
recovery of BRAF levels and MAPK phosphorylation after wash-out ([2]; 100 nM 24 h treatment, wash-out, 24 h after): 30%
time to near complete / maximal BRAF^V600E degradation ([2]; 100 nM time course): ≤ 4 h
DC50 ([2]; 20-24 h treatment, read-out: DC50 (half-maximal degradation)): 6.8 nM
Dmax ([2]; 20-24 h treatment, read-out: DMAX (percent of maximal degradation)): > 95%
BRAF^WT degradation ([3]; MRTX849 pre-treatment 2 h): 20%
BRAF^WT degradation ([3]; PROTAC alone): 50%
EC50 ([6]; Homo sapiens, 72 h, 3 days, read-out: EC50, cell growth): 37 ± 1.2 nM
IC50 (BRAF (V600A)): 1.06 nM
IC50 (BRAF (G469A)): 0.98 nM
IC50 (BRAF (G464V)): 9.18 nM
IC50 (BRAF (V600D)): 2.68 nM
IC50 (BRAF (BRAF^WT)): 5.8 nM
IC50 (ARAF): 0.27 nM
IC50 (BRAF (V600K)): 0.49 nM
IC50 (BRAF (K601E)): 7.84 nM
IC50 (BRAF (L597V)): 16 nM
IC50 (CRAF): 37.6 nM
DC50 [8]: 15 nM
Dmax [8]: > 95%
Structure (SMILES): CCCS(=O)(=O)Nc1ccc(F)c(C(=O)c2c[nH]c3ncc(-c4ccc(N5CCN(CC(=O)NC(C(=O)N6CC(O)CC6C(=O)NCc6ccc(-c7scnc7C)cc6)C(C)(C)C)CC5)cc4)cc23)c1F (stereo not drawn) [SJF-0628]
concentration giving maximal inhibition of MEK and ERK phosphorylation / maximal suppression of p-ERK [4]: 10 nM
increase in potency of the PROTAC over epimer SJF-0661 (p-ERK suppression) [4]: 10 fold
cell growth inhibition [5]: 65%
increase in potency of SJF-0628 (cell growth) ([6]; vs vemurafenib and SJF-0661): 6 fold
effect on tumor growth ([7]; once daily 100 mg/kg i.p.): minor response
effect on tumor growth ([7]; twice daily 50 mg/kg i.p., within 10 days, 50 mg/kg): tumor regression; also recorded: tumor shrinkage beyond the initial tumor size
